Patent publication US9796700B2 (Celgene CAR LLC, priority 2013, dated 2017)
pIC50: −log10 of the molar value.

How the values were obtained:
Erk1 = Erk1 (Homo sapiens (Human), UniProt P27361); test: Protein Mass Modification Assay (intact protein MALDI); type: binding
In short: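 Human Erk1 was incubated 60 min at room temperature with a 10-fold molar excess of compound, then analysed as intact protein by MALDI with sinapinic acid matrix. The centroid mass shift versus untreated protein was divided by compound molecular weight to give percent modified protein.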

MEK1 activated ERK1 = MEK1 activated ERK1 (Homo sapiens (Human), UniProt P27361); test: Omnia continuous-read kinase assay for potency against MEK1 activated ERK1; type: biochemical; conditions: MEK1 activated ERK1, WT, ATP at KM
Sequence of MEK1 activated ERK1 (P27361 whole entry): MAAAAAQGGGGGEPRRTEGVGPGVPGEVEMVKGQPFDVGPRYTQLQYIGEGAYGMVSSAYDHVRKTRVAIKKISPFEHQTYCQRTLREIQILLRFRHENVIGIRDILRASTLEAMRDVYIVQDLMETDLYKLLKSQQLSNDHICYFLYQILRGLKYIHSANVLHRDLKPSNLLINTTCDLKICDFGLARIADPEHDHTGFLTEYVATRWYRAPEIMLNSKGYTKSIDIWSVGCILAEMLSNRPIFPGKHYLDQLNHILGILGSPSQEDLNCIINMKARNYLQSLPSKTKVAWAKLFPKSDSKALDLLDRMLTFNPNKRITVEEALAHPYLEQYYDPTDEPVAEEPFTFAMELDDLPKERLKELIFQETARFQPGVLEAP
Description: Omnia Assay Protocol for Potency Assessment Against MEK1 Activated ERK1:
The protocol below describes continuous-read kinase assays to measure potency of compounds against activated ERK1 enzyme. The mechanics of the assay platform are best described by the vendor (Invitrogen, Carlsbad, Calif.) on their website at the following URL: invitrogen.com/site/us/en/home.html.
Briefly, a 1.25× stock of ERK1 enzyme (14-439-K) from Millipore (Billerica, Mass.), 5×ATP (AS001A) and ST17-Sox conjugated peptide substrate (KNZ1171C) were prepared in 1× kinase reaction buffer consisting of 20 mM Tris, pH 7.5, 5 mM MgCl2, 1 mM EGTA, 5 mM β-glycerophosphate, 5% glycerol (10× stock, KB002A) and 0.2 mM DTT. 10 μL of ATP/ST17-sox peptide substrate mix was combined with 0.5 μL volume of 100% DMSO and serially diluted compounds were prepared in 100% DMSO in a Corning (#3574) 384-well, white, non-binding surface microtiter plate (Corning, N.Y.). Kinase reactions were started with the addition of 40 μL of ERK1 solution and monitored every 71 seconds for 30-240 minutes at λex360/λem485 in a Synergy plate reader from BioTek (Winooski, Vt.). At the conclusion of each assay, progress curves from each well were examined for linear reaction kinetics and fit statistics (R^2, 95% confidence interval, absolute sum of squares). Initial velocity (0 minutes to ˜30+ minutes) from each reaction was determined from the slope of a plot of relative fluorescence units vs time (minutes or seconds) and then plotted against inhibitor concentration to estimate ^AppIC50 from log [Inhibitor] vs Response, Variable Slope model in GraphPad Prism from GraphPad Software (San Diego, Calif.).
[Reagent] used in optimized protocol:
[ERK1]=4 nM, [ATP]=50 μM, [ST17-Sox]=10 μM (ATP ^appKM 48 μM)
The results of this assay show the degree of inhibition of ERK activity, which is a direct measurement of inhibition of ERK activity. Results from this assay are reported in Table A under the column “ERK1 Omnia WT ATP KM IC50 (nM).”

Sequence of Erk1 (P27361 whole entry, looked up): as the sequence (P27361 whole entry) above

Row | ERK1 Mass Mod (%) (Erk1) | pIC50 (MEK1 activated ERK1) | SMILES
1 | G (proived a mass modification ≦30%) | < 6.00 | C=CC(=O)N[C@H]1CCCC1Nc1nc(N[C@H]2CCCN(C(C)=O)C2)ncc1C(F)(F)F (stereo in doubt) [Compound I-24, N-((1S,2S)-2-((2-(((S)-1-Acetylpiperidin-3-yl)amino)-5-(trifluoromethyl)pyrimidin-4-yl)amino)cyclopentyl)acrylamide]
2 | E (provided a mass modification of ≧70%) | > 7.00 | C=CC(=O)Nc1ccccc1Nc1nc(N[C@@H]2CCC[C@H](C(N)=O)C2)ncc1C(F)(F)F [Compound I-7, (1S,3R)-3-((4-((2-acrylamidophenyl)amino)-5-(trifluoromethyl)pyrimidin-2-yl)amino)cyclohexanecarboxamide]
3 | E (provided a mass modification of ≧70%) | > 7.00 | C=CC(=O)Nc1ccccc1Nc1nc(N[C@H]2CCCN(C=O)C2)ncc1C(F)(F)F [Compound I-9, (S)—N-(2-((2-((1-formylpiperidin-3-yl)amino)-5-(trifluoromethyl)pyrimidin-4-yl)amino)phenyl)acrylamide]
4 | E (provided a mass modification of ≧70%) | > 7.00 | C=CC(=O)Nc1ccccc1Nc1nc(N[C@H]2CCCN(C(C)=O)C2)ncc1C(F)(F)F [Compound I-10, (S)—N-(2-(2-(1-acetylpiperidin-3-ylamino)-5-(trifluoromethyl)pyrimidin-4-ylamino)phenyl)acrylamide]
5 | E (provided a mass modification of ≧70%) | > 7.00 | C=CC(=O)Nc1ccccc1Nc1nc(NC2CCN(S(C)(=O)=O)CC2)ncc1C(F)(F)F [Compound I-13, N-(2-((2-((1-(methylsulfonyl)piperidin-4-yl)amino)-5-(trifluoromethyl)pyrimidin-4-yl)amino)phenyl)acrylamide]
6 | E (provided a mass modification of ≧70%) | > 7.00 | C=CC(=O)Nc1ccccc1Nc1nc(N[C@H]2CCCN(C(N)=O)C2)ncc1C(F)(F)F [Compound I-18, (S)-3-((4-((2-Acrylamidophenyl)amino)-5-(trifluoromethyl)pyrimidin-2-yl)amino)piperidine-1-carboxamide]
7 | E (provided a mass modification of ≧70%) | > 7.00 | C=CC(=O)Nc1cc(C)ccc1Nc1nc(N[C@H]2CCCN(C(C)=O)C2)ncc1C(F)(F)F [Compound I-19, (S)—N-(2-((2-((1-Acetylpiperidin-3-yl)amino)-5-(trifluoromethyl)pyrimidin-4-yl)amino)-5-methylphenyl)acrylamide]
8 | E (provided a mass modification of ≧70%) | > 7.00 | C=CC(=O)Nc1cc(C)ccc1Nc1nc(N[C@H]2CCCN(C(=O)CO)C2)ncc1C(F)(F)F [Compound I-20, (S)—N-(2-((2-((1-(2-Hydroxyacetyl)piperidin-3-yl)amino)-5-(trifluoromethyl)pyrimidin-4-yl)amino)-5-methylphenyl)acrylamide]
9 | G (proived a mass modification ≦30%) | < 6.00 | N#CNC(=O)c1ccccc1Nc1nc(N[C@H]2CCCN(C(=O)CO)C2)ncc1C(F)(F)F [Compound I-26, (S)—N-Cyano-2-((2-((1-(2-hydroxyacetyl)piperidin-3-yl)amino)-5-(trifluoromethyl)pyrimidin-4-yl)amino)benzamide]
10 | G (proived a mass modification ≦30%) | < 6.00 | CC#CC(=O)Nc1ccccc1Nc1nc(N[C@H]2CCCN(C(=O)CO)C2)ncc1C(F)(F)F [Compound I-29, (S)—N-(2-((2-((1-(2-Hydroxyacetyl)piperidin-3-yl)amino)-5-(trifluoromethyl)pyrimidin-4-yl)amino)phenyl)but-2-ynamide]
11 |  | > 7.00 | CCC(=O)Nc1ccccc1Nc1nc(N[C@H]2CCCN(C(=O)CO)C2)ncc1Cl [Compound I-311, (S)—N-(2-((5-chloro-2-((1-(2-hydroxyacetyl)piperidin-3-yl)amino)pyrimidin-4-yl)amino)phenyl)propionamide]
12 | E (provided a mass modification of ≧70%) |  | C=CC(=O)Nc1cc(C)ccc1Nc1nc(Nc2nc(OC)ncc2C#N)ncc1C(F)(F)F [Compound I-346, N-(2-((2-((5-cyano-2-methoxypyrimidin-4-yl)amino)-5-(trifluoromethyl)pyrimidin-4-yl)amino)-5-methylphenyl)acrylamide]
13 | E (provided a mass modification of ≧70%) |  | C=CC(=O)Nc1cc(C)ccc1Nc1nc(Nc2nc(OC)ncc2OC)ncc1C(F)(F)F [Compound I-349, N-(2-((2-((2,5-dimethoxypyrimidin-4-yl)amino)-5-(trifluoromethyl)pyrimidin-4-yl)amino)-5-methylphenyl)acrylamide]
14 | E (provided a mass modification of ≧70%) |  | C=CC(=O)Nc1cc(C)ccc1Nc1nc(Nc2ncc(C(F)(F)F)c(OC)n2)ncc1C(F)(F)F [Compound I-354, N-(2-((2-((4-methoxy-5-(trifluoromethyl)pyrimidin-2-yl)amino)-5-(trifluoromethyl)pyrimidin-4-yl)amino)-5-methylphenyl)acrylamide]
15 | E (provided a mass modification of ≧70%) |  | C=CC(=O)Nc1cc(C)ccc1Nc1nc(Nc2nc(OC)ncc2F)ncc1C(F)(F)F [Compound I-357, N-(2-((2-((5-fluoro-2-methoxypyrimidin-4-yl)amino)-5-(trifluoromethyl)pyrimidin-4-yl)amino)-5-methylphenyl)acrylamide]
16 | E (provided a mass modification of ≧70%) |  | C=CC(=O)Nc1cc(C)ccc1Nc1nc(Nc2cc(OCC)ncc2C)ncc1C(F)(F)F [Compound I-358, N-(2-((2-((2-ethoxy-5-methylpyridin-4-yl)amino)-5-(trifluoromethyl)pyrimidin-4-yl)amino)-5-methylphenyl)acrylamide]
17 | E (provided a mass modification of ≧70%) |  | C=CC(=O)Nc1cc(C)ccc1Nc1nc(Nc2cc(OCCOC)ncc2C)ncc1C(F)(F)F [Compound I-359, N-(2-((2-((2-(2-methoxyethoxy)-5-methylpyridin-4-yl)amino)-5-(trifluoromethyl)pyrimidin-4-yl)amino)-5-methylphenyl)acrylamide]
18 | E (provided a mass modification of ≧70%) |  | C=CC(=O)Nc1cc(C)c(F)cc1Nc1nc(Nc2cc(OC)ncc2C)ncc1C(F)(F)F [Compound I-366, N-(4-fluoro-2-((2-((2-methoxy-5-methylpyridin-4-yl)amino)-5-(trifluoromethyl)pyrimidin-4-yl)amino)-5-methylphenyl)acrylamide]
19 | E (provided a mass modification of ≧70%) |  | C=CC(=O)Nc1c(Nc2nc(Nc3cc(OC)ncc3C)ncc2C(F)(F)F)ccc(C)c1F [Compound I-367, N-(2-fluoro-6-((2-((2-methoxy-5-methylpyridin-4-yl)amino)-5-(trifluoromethyl)pyrimidin-4-yl)amino)-3-methylphenyl)acrylamide]

Row | SMILES | ERK1 Mass Mod (%) (Erk1) | pIC50 (MEK1 activated ERK1)
20 | C=CC(=O)Nc1ccccc1Nc1nc(N[C@H]2CCCN(C(=O)OC)C2)ncc1C(F)(F)F [Compound I-17, (S)-Methyl 3-((4-((2-acrylamidophenyl)amino)-5-(trifluoromethyl)pyrimidin-2-yl)amino) piperidine-1-carboxylate] | F (provided a mass modification of 31-69%) | > 7.00
21 | CC#CC(=O)N[C@@H]1CCCC[C@H]1Nc1nc(N[C@H]2CCCN(C(=O)CO)C2)ncc1C(F)(F)F [Compound I-33, N-((1R,2R)-2-((2-(((S)-1-(2-Hydroxyacetyl)piperidin-3-yl)amino)-5-(trifluoromethyl)pyrimidin-4-yl)amino)cyclohexyl)but-2-ynamide] | F (provided a mass modification of 31-69%) | < 6.00
22 | C=CC(=O)Nc1cc(C)ccc1Nc1nc(Nc2cnc(OC)cc2C)ncc1C(F)(F)F [Compound I-350, N-(2-((2-((6-methoxy-4-methylpyridin-3-yl)amino)-5-(trifluoromethyl)pyrimidin-4-yl)amino)-5-methylphenyl)acrylamide] | F (provided a mass modification of 31-69%) | 
23 | C=CC(=O)Nc1cc(C)ccc1Nc1nc(Nc2cc(OC)ncc2Cl)ncc1C(F)(F)F [Compound I-351, N-(2-((2-((5-chloro-2-methoxypyridin-4-yl)amino)-5-(trifluoromethyl)pyrimidin-4-yl)amino)-5-methylphenyl)acrylamide] | F (provided a mass modification of 31-69%) | 
